Results reported in publication PMC6449043 (ACS chemical biology, 2018).

Target: ndSQR (sulfide quinone oxidoreductase in nanodiscs) (Homo sapiens, UniProt Q9Y6N5)
Assay: spectral titration of charge-transfer complex at […] nm
Type: binding

ndSQR (sulfide quinone oxidoreductase in nanodiscs), sequence (Q9Y6N5 42-450): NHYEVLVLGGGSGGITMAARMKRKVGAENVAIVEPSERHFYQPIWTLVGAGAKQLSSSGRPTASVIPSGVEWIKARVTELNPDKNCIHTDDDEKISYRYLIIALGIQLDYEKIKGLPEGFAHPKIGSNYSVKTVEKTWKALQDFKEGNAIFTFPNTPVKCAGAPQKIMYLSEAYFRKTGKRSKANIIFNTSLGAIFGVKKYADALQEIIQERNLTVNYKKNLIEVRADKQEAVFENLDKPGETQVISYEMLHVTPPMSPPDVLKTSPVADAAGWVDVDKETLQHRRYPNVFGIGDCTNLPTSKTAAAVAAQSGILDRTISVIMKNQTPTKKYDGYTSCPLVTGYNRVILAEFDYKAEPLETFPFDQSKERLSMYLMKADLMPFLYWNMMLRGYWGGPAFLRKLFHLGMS

**Q.** `CS` [MeSH] was tested. Which Kd did it give?
**A.** 38 ± 1 µM
